The record followed here is US20050026847A1, “Methods for treating, preventing, or inhibiting injuries, cell membrane stabilization, and calcium mobilization using pseudopterosin compounds” (priority 2003, published 2005).

The subject of one experiment is T. thermophila. The experiment can be described thus: Phagocytosis activity assay (India ink phagosome formation). To be noted: for effect on rate of phagosome formation / phagocytic activity: 10 minutes drug/ink exposure, FIGS. 2-4; for effect of Pertussis toxin pretreatment on the compound's effect on phagocytosis: Pertussis toxin pretreatment (5 minutes), FIGS. 5-6. The class given is cell-based, Tetrahymena thermophila. The protocol:
Log-phase T. thermophila cultures were grown in 2% protease peptone, at 25° C. The cells were washed and resuspended in 10 mM HEPES, pH 7.4 (250,000 cells/ml). Test compounds were mixed with diluted India ink (1:25, v:v) in order to visualize the newly formed phagosomes. At t=0, the drug/ink mixture was added to the Tetrahymena cells, and at t=10 minutes, […] samples of cell suspension were removed and fixed in 10% formaldehyde. At least about 100 random cells from each sample were then examined using a light microscope. Phagocytic activity was assessed by calculating the ratio of cells with food vacuoles compared to the cells with no food vacuoles.

Experiment [1] deals with Heterocapsa pygmaea cells. The experiment can be described thus: Injury response assay, physical injury (ultrasound-induced oxidative burst, H2O2 by DCFH-DA). Type of experiment: cell-based. To be noted: FIG. 16, read-out: inhibition of oxidative burst in injured cells. The method, then:
The released reactive oxygen species were calibrated to H2O2, the least labile of the group. […] Specifically, by homogenization in a blender with 0.22 μm filtered seawater and 10 mM EDTA, and filtered through 4 layers of cheesecloth. Algal symbionts were pelleted out by centrifugation at 250×g and subsequently washed 10 times with 40 ml clean filtered seawater and pelleted by centrifugation at 750×g. The cells were further purified on Percoll® (Sigma, St. […] DNA staining using DAPI detected on epifluorescence microscopy was used to detect contaminants due to bacterial or coral cells. Cells isolated from live coral were diluted to a final concentration of about 5×10^5 cells/ml using a hemocytometer and maintained in filtered seawater. Heterocapsa pygmaea is grown in culture in F-1 media without silica. The cells were harvested in log growth phase and diluted to about 5×10^5 cells/ml using a hemocytometer. […] H2O2 concentration was calculated from a standard curve from DCFH-DA fluorescence (0.05 mM, redox sensitive probe, requires esterase (82 U) for detection of H2O2). Fluoresence was measured using a Perkin Elmer LS50B Fluorimeter, excitation 488 nm and emission 525 nm.

The next experiment deals with Tetrahymena cells. Kind of experiment: Ca++ signaling assay (Calcium Orange fluorescence, intracellular calcium release). The class given is cell-based, Tetrahymena thermophila. The settings on record: for effect of Pertussis toxin pretreatment on the compound's calcium release activity: 0.5 μg/ml Pertussis toxin for 5 minutes prior to treatment. The method, then: Cell density was adjusted to 500,000 cells/ml using a 10 mM HEPES and 2.5 mM Probenecid buffer (pH 7.4) (Sigma, St. Louis, Mo.). The cells were loaded with 3 μM Calcium Orange AM ester (Molecular Probes, Eugene, Oreg.) for 90 minutes in the dark. The cells were washed, resuspended in buffer, and incubated for 1 hour to allow de-esterification of the fluorescent probe. The cells were washed twice and placed in a 2 ml quartz cuvet. Calcium release was measured by an LS50B Perkin Elmer Fluorimeter (Ex=549, Em=576) (Perkin Elmer, Wellesley, Mass.) for a 20 minute period. The cells were exposed to the test compounds for 20 minutes and then the fluorescence was recorded. In some experiments, the cells were pretreated with 0.5 μg/ml Pertussis toxin for 5 minutes. FIGS. 7A-7C show Tetrahymena cells loaded with Calcium Orange under fluorescence microscopy (X400). Upon calcium binding to calcium orange, the intensity increases thereby indicating the release of intracellular calcium. FIG. 7A is a control.

Experiment [2] can be described thus: Cell-free hydrogen peroxide scavenging (direct antioxidant) assay. To be noted: 50 μM. The method, then:
A mixture of hydrogen peroxide and water without cells was mixed with the DCFH-DA dye and 82U of esterase as described above. To this mixture the drugs were added and results monitored on the fluorimeter.

Another experiment deals with H. pygmaea cells. The experiment can be described thus: Injury response assay, chemical injury (mastoparan-induced oxidative burst). Type of experiment: cell-based, Heterocapsa pygmaea. The settings on record: 10 μM, FIG. 14. The method, then: (§1) To determine the protective effect of pseudopterosin compounds against chemical injury, mastoparan was administered to test cells and released reactive oxygen species calibrated to H2O2 was measured as an indicator of injury.
(§2) Symbiodinium spp. cells were isolated, prepared and identified as described in Example 3. Heterocapsa pygmaea was grown in culture in F-1 media without silica. The cells were harvested in log growth phase and diluted to about 5×10^5 cells/ml using a hemocytometer. […] The oxidative burst was prevented or inhibited by about 71% by incubating the H. pygmaea cells with a mixture comprising 25 μM of pseudopterosin compounds for 1 hour prior to exposure to mastoparan.
(§3) H2O2 concentration was calculated from a standard curve from DCFH-DA fluorescence (0.05 mM, redox sensitive probe, requires esterase (82 U) for detection of H2O2). Fluorescence was measured using a Perkin Elmer LS50B Fluorimeter, excitation 488 nm and emission 525 nm.

Another experiment concerns Symbiodinium spp. cells. The experiment can be described thus: Injury response assay, chemical injury (mastoparan) in Symbiodinium. To be noted: 10 μM, FIG. 14. Type of experiment: cell-based. The method, then:
as §1, §2, §3

As for `[Ca+2].[Cl-].[Cl-]` [CaCl2], the “effect on rate of phagosome formation / phagocytic activity” value in the experiment on T. thermophila is reported as “increases the rate of phagocytic activity”.

Usually inhibition stands for the percentage by which the read-out fell short of the control. Turning to `c1ccc2c(c1)[I+]c1ccccc1-2` [DPI, Diphenylene iodonium chloride], the inhibition at 50 µM in experiment [1] is around 96%.

Take `CC(C)=C[C@H]1C[C@H](C)[C@H]2CC[C@H](C)c3c(O[C@@H]4OC[C@@H](O)[C@H](O)[C@H]4O)c(O)c(C)c1c32` [PsA, Pseudopterosin A]: in the experiment with Tetrahymena cells, the “effect of Pertussis toxin pretreatment on the compound's calcium release activity” value was “Pertussis toxin blocks PsA activity”. Further, the “effect of mastoparan on PsA activity” value in the experiment on Tetrahymena cells (FIG. 10A) was “Mastoparan does not inhibit PsA”. Moreover, the “effect of Verapamil or Gd3+ on the effects of PsA (intracellular calcium release and phagosome formation)” value with Tetrahymena cells (T. thermophila) is listed as “not inhibited by Verapamil or Gd^3+”. In addition, the “effect of suramin pretreatment on PsA activity” value in the experiment with Tetrahymena cells (suramin pretreatment (5 minutes), FIG. 10B) is “blocks PsA activity”. Moreover, in the experiment on T. thermophila, the “effect on rate of phagosome formation / phagocytic activity” value is recorded as “decreases the rate of phagosome formation in a dose dependent manner” and the “effect of Pertussis toxin pretreatment on the compound's effect on phagocytosis” value is reported as “completely blocks the effect of PsA on phagocytosis”.

Turning to `COc1ccc2c(c1)CC[C@@H]1[C@@H]2CC[C@]2(C)[C@@H](NCCCCCCN3C(=O)C=CC3=O)CC[C@@H]12` [Pseudopterosin U73122], the “effect of Pertussis toxin pretreatment on the compound's calcium release activity” value in the experiment with Tetrahymena cells is recorded as “Pertussis toxin does not inhibit U73122 activity”. The “effect of Pertussis toxin pretreatment on the compound's effect on phagocytosis” value in the experiment on T. thermophila is listed as “not blocked by Pertussis toxin pretreatment”.

Turning to `O=C1O[C@H]([C@@H](O)CO)C(O)=C1O` [ascorbic acid], the “immediate reduction of the fluorescent signal in cell free system” value in experiment [2] is “about 60%”.

Consider mastoparan, for which the “effect of Pertussis toxin pretreatment on the compound's calcium release activity” value in the experiment with Tetrahymena cells is on record as “inhibits the effects of mastoparan”. The “effect of mastoparan on oxidative burst in H. pygmaea” value in the experiment on H. pygmaea cells was “cause a large oxidative burst”. The “effect of mastoparan on Symbiodinium spp. cells” value in the experiment on Symbiodinium spp. cells is “no effect”.
